One assay deals with T1, DGKζ (Homo sapiens, UniProt Q13574).
T1 construct: Full length human DGKα and DGKζ, each expressed containing a TVMV-cleavable C-terminal Hexa-His tag; made in house; host or cells: Sf9 insect cells, baculovirus (Bac-to-Bac)
The experiment in a line: In vitro DGK inhibition assay, DGKζ LIPGLO (extruded liposomes). It is filed as biochemical. To be noted: liposome (LIPGLO) assay, 150 μM ATP, 5 nM enzyme. The method, then: (§1) Assay 1: In vitro DGK Inhibition Assays—Method A
(§2) The DGKα and DGKζ reactions were performed using extruded liposomes (DGKα and DGKζ LIPGLO assays). The reactions were carried out in 50 mM MOPS pH 7.5, 100 mM NaCl, 10 mM MgCl2, 1 μM CaCl2), and 1 mM DTT (assay buffer). The lipid substrate concentrations were 2 mM PS, 0.25 mM DAG, and 2.75 mM PC for the extruded liposome reactions. The reactions were carried out in 150 μM ATP. The enzyme concentrations for the DGKα and DGKζ were 5 nM.
(§3) The compound inhibition studies were carried out as follows: 50 nL droplets of each test compound (top concentration 10 mM with 11 point, 3-fold dilution series for each compound) solubilized in DMSO were transferred to wells of a white 1536 well plate (Corning 3725). A 5 mL enzyme/substrate solution at 2× final reaction concentration was prepared by combining 2.5 mL 4× enzyme solution (20 nM DGKα or DGKζ (prepared as described below) in assay buffer) and 2.5 mL of 4× liposome solution (compositions described below) and incubated at room temperature for 10 minutes. Next, 1 μL 2× enzyme/substrate solution was added to wells containing the test compound and reactions were initiated with the addition of 1 μL 300 uM ATP. The reactions were allowed to proceed for 1 hr, after which 2 μL Glo Reagent (Promega V9101) was added and incubated for 40 minutes. Next, 4 μL Kinase Detection Reagent was added and incubated for 30 minutes. Luminescence was recorded using an EnVision microplate reader. The percent inhibition was calculated from the ATP conversion generated by no enzyme control reactions for 100% inhibition and vehicle-only reactions for 0% inhibition. The compounds were evaluated at 11 concentrations to determine IC50.
(§4) The lipid composition was 5 mol % DAG (Avanti 8008110), 40 mol % PS (Avanti 840035P), and 55 mol % PC (Avanti 850457) at a total lipid concentration of 15.2 mg/mL for the 4× liposome solution. The PC, DAG, and PS were dissolved in chloroform, combined, and dried in vacuo to a thin film. The lipids were hydrated to 20 mM in 50 mM MOPS pH 7.5, 100 mM NaCl, 5 mM MgCl2, and were freeze-thawed five times. The lipid suspension was extruded through a 100 nm polycarbonate filter eleven times. Dynamic light scattering was carried out to confirm liposome size (50-60 nm radius). The liposome preparation was stored at 4° C. for as long as four weeks.
(§5) Human DGK-alpha-TVMV-His-pFBgate and human DGK-zeta-transcript variant-2-TVMV-His-pFBgate baculovirus samples were generated using the Bac-to-Bac baculovirus expression system (Invitrogen) according to the manufacturer's protocol. The DNA used for expression of DGK-alpha and DGK-zeta have SEQ ID NOs: 1 and 3, respectively. Baculovirus amplification was achieved using infected Sf9 cells at 1:1500 virus/cell ratios, and grown for 65 hours at 27° C. post-transfection.
(§6) Full length human DGKα and DGKζ, each expressed containing a TVMV-cleavable C-terminal Hexa-His tag sequence (SEQ ID NOs: 2 and 4, respectively) and produced as described above, were purified from Sf9 baculovirus-infected insect cell paste. The cells were lysed using nitrogen cavitation method with a nitrogen bomb (Parr Instruments), and the lysates were clarified by centrifugation. The clarified lysates were purified to ˜90% homogeneity, using three successive column chromatography steps on an ÄKTA Purifier Plus system. The three steps column chromatography included nickel affinity resin capture (i.e. HisTrap FF crude, GE Healthcare), followed by size exclusion chromatography (i.e. HiLoad 26/600 Superdex 200 prep grade, GE Healthcare for DGK-alpha, and HiPrep 26/600 Sephacryl S 300_HR, GE Healthcare for DGK-zeta). The third step was ion exchange chromatography, and differed for the two isoforms. DGKα was polished using Q-Sepharose anion exchange chromatography (GE Healthcare). DGKζ was polished using SP Sepharose cation exchange chromatography (GE Healthcare). The proteins were delivered at concentrations of ≥2 mg/mL. […]

Another assay concerns the target T2, DGKα (Homo sapiens, UniProt P23743).
T2 construct: made in house; host or cells: Sf9 insect cells, baculovirus (Bac-to-Bac)
The experiment in a line: In vitro DGK inhibition assay, DGKα LIPGLO (extruded liposomes). It is filed as biochemical. To be noted: liposome (LIPGLO) assay, 150 μM ATP, 5 nM enzyme. The method, then:
as §1, §2, §3, §4, §5, §6

pIC50: −log10 of the molar value.

T1 sequence (Q13574 1-929 isoform Q13574-4): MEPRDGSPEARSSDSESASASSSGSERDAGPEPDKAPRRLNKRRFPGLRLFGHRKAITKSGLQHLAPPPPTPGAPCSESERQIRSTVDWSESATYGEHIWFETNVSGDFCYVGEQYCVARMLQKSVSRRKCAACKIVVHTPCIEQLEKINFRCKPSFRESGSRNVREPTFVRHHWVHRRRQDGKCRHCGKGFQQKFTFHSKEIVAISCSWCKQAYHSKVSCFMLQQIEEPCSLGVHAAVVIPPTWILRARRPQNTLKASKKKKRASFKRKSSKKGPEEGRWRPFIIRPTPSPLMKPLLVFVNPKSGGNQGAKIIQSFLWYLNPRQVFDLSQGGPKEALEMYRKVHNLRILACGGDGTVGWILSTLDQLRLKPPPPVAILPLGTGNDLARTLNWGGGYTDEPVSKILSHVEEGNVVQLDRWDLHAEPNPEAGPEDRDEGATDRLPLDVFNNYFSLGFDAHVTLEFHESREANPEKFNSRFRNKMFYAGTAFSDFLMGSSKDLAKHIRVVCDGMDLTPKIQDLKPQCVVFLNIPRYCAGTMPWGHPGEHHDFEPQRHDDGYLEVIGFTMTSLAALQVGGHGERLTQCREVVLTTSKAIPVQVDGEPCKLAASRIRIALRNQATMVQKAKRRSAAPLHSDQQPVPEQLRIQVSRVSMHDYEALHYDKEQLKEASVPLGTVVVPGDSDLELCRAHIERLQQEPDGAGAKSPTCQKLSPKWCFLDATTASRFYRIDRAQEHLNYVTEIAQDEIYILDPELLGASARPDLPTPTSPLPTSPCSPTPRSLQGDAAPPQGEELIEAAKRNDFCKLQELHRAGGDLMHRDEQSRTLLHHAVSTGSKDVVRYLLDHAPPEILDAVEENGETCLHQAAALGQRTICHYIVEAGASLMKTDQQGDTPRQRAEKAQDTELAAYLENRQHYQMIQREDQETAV
T2 sequence (P23743 whole entry): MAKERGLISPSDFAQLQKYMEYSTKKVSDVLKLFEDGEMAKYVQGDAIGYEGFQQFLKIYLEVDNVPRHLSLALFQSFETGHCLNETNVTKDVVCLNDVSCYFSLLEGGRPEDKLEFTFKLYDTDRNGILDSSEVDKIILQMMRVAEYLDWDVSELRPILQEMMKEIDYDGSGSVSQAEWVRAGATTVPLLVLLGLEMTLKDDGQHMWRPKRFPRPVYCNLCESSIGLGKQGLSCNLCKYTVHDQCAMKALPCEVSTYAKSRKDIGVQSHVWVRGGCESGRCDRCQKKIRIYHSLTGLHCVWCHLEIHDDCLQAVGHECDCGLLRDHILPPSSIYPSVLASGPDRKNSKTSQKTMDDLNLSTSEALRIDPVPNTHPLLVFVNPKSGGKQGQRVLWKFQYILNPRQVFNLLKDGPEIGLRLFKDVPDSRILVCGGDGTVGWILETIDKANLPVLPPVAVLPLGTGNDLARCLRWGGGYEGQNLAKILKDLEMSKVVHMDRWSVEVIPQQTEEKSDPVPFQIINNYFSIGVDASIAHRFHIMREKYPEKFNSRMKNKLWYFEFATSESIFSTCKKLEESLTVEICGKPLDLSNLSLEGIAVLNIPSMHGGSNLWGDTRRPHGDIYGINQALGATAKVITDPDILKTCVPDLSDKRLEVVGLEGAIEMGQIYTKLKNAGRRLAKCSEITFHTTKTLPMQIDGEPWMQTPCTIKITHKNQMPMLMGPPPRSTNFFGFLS

One may read the pIC50 as the negative decadic logarithm of the IC50, by convention in mol/L. A lower pIC50 goes with a high IC50. For `C[C@@H]1CN(c2c(C#N)c(=O)n(C)c3ccccc23)[C@@H](C)CN1C(c1ccc(F)cc1)c1ccc(F)cc1` (stereo in doubt) [Example 6, 4-[(2S,5R)-4-[bis(4-fluorophenyl)methyl]-2,5-dimethylpiperazin-1-yl]-1-methyl-2-oxo-1,2-dihydroquinoline-3-carbonitrile], the negative logarithm of the IC50 (pIC50) against DGKζ was under 4.57; at DGKα, 6.15.
For `C[C@@H]1CN(c2cc(=O)n(C)c3ccc(C#N)cc23)[C@@H](C)CN1C(c1ccc(F)cc1)c1ccc(F)cc1` (stereo in doubt) [Example 7, 4-[(2S,5R)-4-[bis(4-fluorophenyl)methyl]-2,5-dimethylpiperazin-1-yl]-1-methyl-2-oxo-1,2-dihydroquinoline-6-carbonitrile] the same measures were under 3.60 and 5.89.
Take `Cn1c(=O)c([N+](=O)[O-])c(N2CCN(Cc3cccc(F)c3)CC2)c2cc(F)ccc21` [Example 1, 6-fluoro-4-{4-[(3-fluorophenyl)methyl]piperazin-1-yl}-1-methyl-3-nitro-1,2-dihydroquinolin-2-one]: the figures for the negative-log IC50 (pIC50) at DGKζ and against DGKα were 4.39 and 8.14, respectively.
`Cc1cc(F)cc(CN2CCN(c3c(-c4ccncc4)c(=O)n(C)c4ccc(F)cc34)CC2)c1` [Example 2, 6-fluoro-4-{4-[(3-fluoro-5-methylphenyl)methyl]piperazin-1-yl}-1-methyl-3-(pyridin-4-yl)-1,2-dihydroquinolin-2-one]: the negative-log IC50 (pIC50) on DGKζ is 4.46; against DGKα, 7.29.
On to `CCn1ccc2c(CN3CCN(c4c([N+](=O)[O-])c(=O)n(C)c5ccc(F)cc45)CC3)cccc21` [Example 4, 4-{4-[(1-ethyl-1H-indol-4-yl)methyl]piperazin-1-yl}-6-fluoro-1-methyl-3-nitro-1,2-dihydroquinolin-2-one], for which the pIC50 on DGKζ was 5.10; against DGKα it was 6.82.
For `Cn1c(=O)c([N+](=O)[O-])c(N2CCN(Cc3ccccc3)C(=O)C2)c2cc(F)ccc21` [Example 5, 4-(4-benzyl-3-oxopiperazin-1-yl)-6-fluoro-1-methyl-3-nitro-1,2-dihydroquinolin-2-one] the same measures were under 3.62 and 6.30.
In the case of `COc1ccc2c(c1)c(N1CCN(Cc3cccc4ccccc34)CC1)c([N+](=O)[O-])c(=O)n2C` [Example 8, 6-methoxy-1-methyl-4-{4-[(naphthalen-1-yl)methyl]piperazin-1-yl}-3-nitro-1,2-dihydroquinolin-2-one], the pIC50 is 4.09 against DGKζ and 4.41 on DGKα.
As for `Cn1c(=O)c(CO)c(N2CCN(C(c3ccccc3)c3ccccc3)CC2)c2ccccc21` [Example 11, 4-[4-(diphenylmethyl)piperazin-1-yl]-3-(hydroxymethyl)-1-methyl-1,2-dihydroquinolin-2-one], the negative-log IC50 (pIC50) on DGKζ is under 3.62; against DGKα, 4.05.

The values are drawn from patent US20230061608A1, “SUBSTITUTED QUINOLINONYL PIPERAZINE COMPOUNDS USEFUL AS T CELL ACTIVATORS” (BRISTOL-MYERS SQUIBB COMPANY, priority 2019, published 2023).
